Assay results published in the supplement of paper PMC10307832.

Legend:
Test in all cases: relative viability (nuclei count vs DMSO), 5 days (fraction); higher = more cells survive
Metformin + Tozasertib = compound: CN(C)C(=N)NC(=N)N [Metformin] + Cc1cc(Nc2cc(N3CCN(C)CC3)nc(Sc3ccc(NC(=O)C4CC4)cc3)n2)n[nH]1 [Tozasertib] (partner 0.1 µM)
In short: (§1)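 Five library-drug doses in √10 steps were combined with a fixed anchor-drug dose, or a single drug was given alone, by pin tool to lung cancer cell lines in 1536-well plates the day after seeding. Nuclei were stained and counted after 5 days. Relative viability is the nuclei count in treated wells over that in vehicle wells, taken as the median of duplicate plates.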

Apatinib + Palbociclib = compound: N#CC1(c2ccc(NC(=O)c3cccnc3NCc3ccncc3)cc2)CCCC1 [Apatinib] + CC(=O)c1c(C)c2cnc(Nc3ccc(N4CCNCC4)cn3)nc2n(C2CCCC2)c1=O [Palbociclib] (partner 0.5 µM)
In short: as §1

Apatinib + Linsitinib = compound: N#CC1(c2ccc(NC(=O)c3cccnc3NCc3ccncc3)cc2)CCCC1 [Apatinib] + C[C@]1(O)C[C@@H](c2nc(-c3ccc4ccc(-c5ccccc5)nc4c3)c3c(N)nccn32)C1 [Linsitinib] (partner 1 µM)
In short: as §1

Apatinib + Navitoclax = compound: N#CC1(c2ccc(NC(=O)c3cccnc3NCc3ccncc3)cc2)CCCC1 [Apatinib] + CC1(C)CCC(c2ccc(Cl)cc2)=C(CN2CCN(c3ccc(C(=O)NS(=O)(=O)c4ccc(N[C@H](CCN5CCOCC5)CSc5ccccc5)c(S(=O)(=O)C(F)(F)F)c4)cc3)CC2)C1 [Navitoclax] (partner 0.5 µM)
In short: as §1

| Cell Line | relative viability (Metformin + Tozasertib; first compound 10 µM) | relative viability (Metformin + Tozasertib; first compound 31.62 µM) | relative viability (Metformin + Tozasertib; first compound 100 µM) | relative viability (Metformin + Tozasertib; first compound 316.23 µM) | relative viability (Metformin + Tozasertib; first compound 1000 µM) | relative viability (Apatinib + Palbociclib; first compound 0.08 µM) | relative viability (Apatinib + Palbociclib; first compound 0.253 µM) | relative viability (Apatinib + Palbociclib; first compound 0.8 µM) | relative viability (Apatinib + Palbociclib; first compound 2.53 µM) | relative viability (Apatinib + Palbociclib; first compound 8 µM) | relative viability (Apatinib + Linsitinib; first compound 0.08 µM) | relative viability (Apatinib + Linsitinib; first compound 0.253 µM) | relative viability (Apatinib + Linsitinib; first compound 0.8 µM) | relative viability (Apatinib + Linsitinib; first compound 2.53 µM) | relative viability (Apatinib + Linsitinib; first compound 8 µM) | relative viability (Apatinib + Navitoclax; first compound 0.08 µM) | relative viability (Apatinib + Navitoclax; first compound 0.253 µM) | relative viability (Apatinib + Navitoclax; first compound 0.8 µM) | relative viability (Apatinib + Navitoclax; first compound 2.53 µM) | relative viability (Apatinib + Navitoclax; first compound 8 µM) |
| --- | --- | --- | --- | --- | --- | --- | --- | --- | --- | --- | --- | --- | --- | --- | --- | --- | --- | --- | --- | --- |
| NCI-H661 | 0.344 | 0.373 | 0.377 | 0.362 | 0.366 | 0.388 | 0.405 | 0.417 | 0.417 | 0.356 | 0.526 | 0.578 | 0.648 | 0.596 | 0.52 | – | – | – | – | – |
| NCI-H650 | 0.831 | 0.8 | 0.973 | 0.48 | 0.919 | 0.316 | 0.337 | 0.372 | 0.272 | 0.264 | 0.787 | 0.871 | 0.756 | 0.734 | 0.663 | – | – | – | – | – |
| NCI-H1915 | – | 0.452 | 0.466 | 0.416 | 0.489 | 0.549 | 0.524 | 0.555 | 0.5 | 0.475 | 1.15 | 1.02 | 1.08 | 1.06 | 0.921 | 0.838 | 0.819 | 0.778 | 0.783 | 0.732 |
| COR-L23 | 0.183 | 0.193 | 0.187 | 0.164 | 0.176 | 0.321 | 0.341 | 0.278 | 0.273 | 0.271 | 1.09 | 0.927 | 0.931 | 0.746 | 0.713 | 1.05 | 1.02 | 0.871 | 0.885 | 0.827 |
